# Source: PubChem BioAssay (NCI)
#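 Abbreviation: GI50, concentration required for 50% inhibition of growth. TGI: concentration producing complete growth inhibition.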
# Legend:
# Test in all cases: inhibition of tumour cell growth, NCI panel, 384-well format
# [1] = system: 786-0 renal
# [2] = system: A549 NSCLC
# [3] = system: ACHN renal
# [4] = system: BT-549 breast
# [5] = system: CCRF-CEM leukemia
# [6] = system: COLO 205 colon
# [7] = system: DU-145 prostate
# [8] = system: EKVX NSCLC
# [9] = system: HCC-2998 colon
# [10] = system: HCT-116 colon
# [11] = system: HCT-15 colon
# [12] = system: HL-60(TB) leukemia
# [13] = system: HS 578T breast
# [14] = system: HT29 colon
# [15] = system: IGROV1 ovarian
# [16] = system: K-562 leukemia
# [17] = system: KM12 colon
# [18] = system: M14 melanoma
# [19] = system: MCF7 breast
# [20] = system: MDA-MB-231 breast
# [21] = system: MDA-MB-435 melanoma
# [22] = system: MOLT-4 leukemia
# [23] = system: NCI-H226 lung
# [24] = system: NCI-H23 lung
# [25] = system: NCI-H322M lung
# [26] = system: NCI-H460 NSCLC
# [27] = system: NCI-H522 lung
# [28] = system: OVCAR-3 ovarian
# [29] = system: OVCAR-4 ovarian
# [30] = system: OVCAR-8 ovarian
# [31] = system: RPMI-8226 leukemia
# [32] = system: RXF 393 renal
# [33] = system: SF-268 CNS
# [34] = system: SF-295 CNS
# [35] = system: SF-539 CNS
# [36] = system: SK-MEL-2 melanoma
# [37] = system: SK-MEL-28 melanoma
# [38] = system: SK-MEL-5 melanoma
# [39] = system: SN12C renal
# [40] = system: SNB-19 CNS
# [41] = system: SR leukemia
# [42] = system: SW-620 colon
# [43] = system: TK-10 renal
# [44] = system: U251 glioblastoma
# [45] = system: UACC-257 melanoma
# [46] = system: UACC-62 melanoma
# [47] = system: UO-31 renal
compound,measurement,setting,value
COc1cc2c(Nc3cc(Cl)c(OC)c(Cl)c3)c(C#N)cnc2cc1OCCCN1CCN(C)CC1,GI50,[1],672 nM
same,TGI,[1],1990 nM
same,GI50,[2],1100 nM
same,TGI,[2],2370 nM
same,GI50,[3],257 nM
same,TGI,[3],1500 nM
same,GI50,[4],785 nM
same,TGI,[4],2080 nM
same,GI50,[5],239 nM
same,TGI,[5],486 nM
same,GI50,[6],765 nM
same,TGI,[6],2050 nM
same,GI50,[7],843 nM
same,TGI,[7],2290 nM
same,GI50,[8],404 nM
same,TGI,[8],1740 nM
same,GI50,[9],1060 nM
same,TGI,[9],2260 nM
same,GI50,[10],329 nM
same,TGI,[10],1200 nM
same,GI50,[11],878 nM
same,TGI,[11],2170 nM
same,GI50,[12],795 nM
same,TGI,[12],2060 nM
same,GI50,[13],456 nM
same,TGI,[13],1350 nM
same,GI50,[14],1630 nM
same,TGI,[14],4360 nM
same,GI50,[15],145 nM
same,TGI,[15],1030 nM
same,GI50,[16],166 nM
same,TGI,[16],330 nM
same,GI50,[17],412 nM
same,TGI,[17],1580 nM
same,GI50,[18],191 nM
same,TGI,[18],633 nM
same,GI50,[19],451 nM
same,TGI,[19],1860 nM
same,GI50,[20],1360 nM
same,TGI,[20],2920 nM
same,GI50,[21],256 nM
same,TGI,[21],925 nM
same,GI50,[22],163 nM
same,TGI,[22],313 nM
same,GI50,[23],1280 nM
same,TGI,[23],2960 nM
same,GI50,[24],401 nM
same,TGI,[24],1480 nM
same,GI50,[25],234 nM
same,TGI,[25],1110 nM
same,GI50,[26],1020 nM
same,TGI,[26],2230 nM
same,GI50,[27],47.7 nM
same,TGI,[27],234 nM
same,GI50,[28],323 nM
same,TGI,[28],1280 nM
same,GI50,[29],808 nM
same,TGI,[29],2170 nM
same,GI50,[30],389 nM
same,TGI,[30],1530 nM
same,GI50,[31],184 nM
same,TGI,[31],366 nM
same,GI50,[32],221 nM
same,TGI,[32],677 nM
same,GI50,[33],604 nM
same,TGI,[33],2060 nM
same,GI50,[34],909 nM
same,TGI,[34],2150 nM
same,GI50,[35],222 nM
same,TGI,[35],484 nM
same,GI50,[36],456 nM
same,TGI,[36],1350 nM
same,GI50,[37],1440 nM
same,TGI,[37],2800 nM
same,GI50,[38],464 nM
same,TGI,[38],1550 nM
same,GI50,[39],321 nM
same,TGI,[39],1430 nM
same,GI50,[40],1710 nM
same,TGI,[40],3630 nM
same,GI50,[41],195 nM
same,TGI,[41],377 nM
same,GI50,[42],1220 nM
same,TGI,[42],2520 nM
same,GI50,[43],381 nM
same,TGI,[43],1620 nM
same,GI50,[44],1240 nM
same,TGI,[44],2510 nM
same,GI50,[45],538 nM
same,TGI,[45],1640 nM
same,GI50,[46],1230 nM
same,TGI,[46],2480 nM
same,GI50,[47],605 nM
same,TGI,[47],1850 nM
